Common to all, as to format: binding
Experiment [1] deals with T1, H. influenzae TrmD (Haemophilus influenzae, UniProt P43912).
T1 construct: host or cells: E. coli BL21
The experiment is described as follows: Isothermal titration calorimetry (ITC) on H. influenzae TrmD. The method, then:
(§1) Experiments were conducted in the S. aureus TrmD SEC buffer (40 mM Tris, pH 7.5, 100 mM NaCl, 10 mM MgCl2, 5% glycerol) for the S. aureus enzyme. The H. influenzae enzyme was buffer exchanged into its ITC buffer (50 mM HEPES, pH 7.5; 500 mM NaCl; 5% glycerol) using Amicon Ultra-15 centrifugal filter units (Merck) prior to use. Compound 1 (BLD Pharmatech) and compound 2 were dissolved in DMSO to a final concentration of 20.0 and 11.6 mM, respectively, and diluted in ITC buffer to give ligand solutions at 1 and 0.58 mM, respectively. Due to a low enthalpy signal, a low c-value titration was performed for compound 1. In this type of experiment, the ligand is typically added at high concentration and in large excess relative to its binding partner, driving more binding events per injection. This causes the equivalence point to be reached after only a few injections and leads to the loss of the characteristic sigmoidal binding curve. TrmD was diluted to a final concentration of 50 μM, and DMSO was added to a final concentration of 5% to match the buffers. ITC measurements were performed using a MicroCal PEAQ-ITC Automated workstation (Malvern Panalytical) equipped with a 200 μL Hastelloy cell and a 40 μL injection syringe. […] Data were analyzed and fitted using the MicroCal PEAQ-ITC Analysis Software 1.21 and plotted in GraphPad Prism 8.0.1.

Experiment [2] concerns the target T2, S. aureus TrmD (Staphylococcus aureus, UniProt Q2FZ43).
T2 construct: made in house; host or cells: E. coli BL21
T2 sequence (Q2FZ43 1-245): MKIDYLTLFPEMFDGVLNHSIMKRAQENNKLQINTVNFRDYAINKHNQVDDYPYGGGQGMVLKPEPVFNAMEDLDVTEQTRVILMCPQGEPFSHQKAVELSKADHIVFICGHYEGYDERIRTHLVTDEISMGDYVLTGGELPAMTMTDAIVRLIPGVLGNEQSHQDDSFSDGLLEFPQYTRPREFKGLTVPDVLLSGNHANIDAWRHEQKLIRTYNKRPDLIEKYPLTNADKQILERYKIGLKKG
Description: Fluorescence polarization (FP) assay, tracer 4, S. aureus TrmD. Conditions: KD S. aureus TrmD (FP displacement assay), apparent affinity, purified compound, 500 nM TrmD, 10 nM tracer 4. The method, then: To enable the screening of hundreds of nanomole-scale synthesized compounds, the implementation of a high-throughput-capable RNA methyltransferase (MTase) assay is considered fundamental. […] In this assay format, a fluorescent, SAM-pocket binding tracer can be displaced by the compound under investigation, and the resulting change in fluorescence polarization defines the read-out of the inhibitor compound’s affinity (Figure A).
(§2) Fluorescence polarization (FP) assays were performed as follows. The assays for H. influenzae TrmD have been described previously. All assays were conducted in technical triplicate using black 96-well half area plates. For the FP assays, a tracer (20 nM Cy5TPD for E. coli and H. influenzae TrmD, 10 nM tracer 4 for S. aureus TrmD) was mixed with the respective enzyme (2 μM E. coli TrmD, 2 μM H. influenzae TrmD, 500 nM S. aureus TrmD) in buffer (E. coli and H. influenzae TrmD: 50 mM HEPES, 500 mM NaCl, 5% Glycerol, pH 7.5, S. aureus TrmD: 40 mM Tris HCl, 100 mM NaCl, 10 mM MgCl2, 5% Glycerol, pH 7.5). The compounds were added in varying concentrations for K D-value determination. […] The Z-factor for tracer 4 was determined by measuring 48 replicates of the free tracer (positive controls, PC) and 48 replicates of a mixture of enzyme and tracer (negative controls, NC). The Z-factor is defined in terms of the means (μ) and standard deviations (σ) of the positive and negative controls and calculated as Z = 1–(3*(σnc + σpc)/(μnc–μpc)). […] Polarization values (mP) were determined from polarization-specific parallel and orthogonal fluorescence intensities. K D-values were calculated in GraphPad Prism 8.0.1 using the four-parameter Hill equation: y(% tracer bound) = bottom + ([ligand]-slope) × (top–bottom)/([ligand]-slope + K Dslope).
Background: Fluorescence polarisation rises when a labelled molecule tumbles more slowly, as on binding a larger partner.

For experiment [3], the target named is T2, S. aureus TrmD. The experiment is described as follows: Isothermal titration calorimetry (ITC) on recombinant S. aureus TrmD. The method, then:
as §1

Experiment [4] concerns the target T2, S. aureus TrmD. The experiment is described as follows: Fluorescence polarization (FP) assay, tracer 4, S. aureus TrmD. Particulars: enzyme concentration varied, read-out: KD of fluorescent tracer, S. aureus TrmD (FP).
Experiment [5] concerns the target T1, H. influenzae TrmD. Description: Fluorescence polarization (FP) assay, tracer 3 (Cy5TPD), H. influenzae TrmD. Particulars: tracer, enzyme concentration varied; read-out: KD of fluorescent tracer, H. influenzae TrmD (FP). The method, then:
as §2

Structures are written as SMILES. Several values for one entry are separate records, joined by “and”; a condition that tells them apart may be missing. Equal values may be shown once.

T1 sequence (P43912 whole entry): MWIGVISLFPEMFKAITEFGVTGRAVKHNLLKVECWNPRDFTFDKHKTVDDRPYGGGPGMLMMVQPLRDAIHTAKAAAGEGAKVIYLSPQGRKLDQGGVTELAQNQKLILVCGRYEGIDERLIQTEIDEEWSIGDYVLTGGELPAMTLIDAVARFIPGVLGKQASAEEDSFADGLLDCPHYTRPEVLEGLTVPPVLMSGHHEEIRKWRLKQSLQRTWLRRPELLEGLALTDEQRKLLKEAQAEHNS

With `Oc1ncnc2scc(-c3ccccc3)c12` [Compound 1, O=C1NC=NC2=C1C(C3=CC=CC=C3)=CS2], the Kd in experiment [1] amounted to 24.3 ± 6.16 µM; in experiment [2] it was 28.6 µM; in experiment [3] it was 19.8 µM.
The corresponding values for `NCc1ccc(CNC(=O)c2csc3nc[nH]c(=O)c23)cc1` [Compound 2, N-(4-(Aminomethyl)benzyl)-4-oxo-3,4-dihydrothieno[2,3-d]pyrimidine-5-carboxamide] are 4.55 ± 0.31 µM, 13.8 µM and 12.9 µM.
Regarding `CN1/C(=C/C=C/C=C/C2=[N+](CCCCCC(=O)NCCCn3cc(CNC(=O)c4csc5nc[nH]c(=O)c45)nn3)c3ccccc3C2(C)C)C(C)(C)c2ccccc21` [Compound 3, reference compound], the Kd in experiment [4] is 23.3 µM; in experiment [5], 2 µM and 2.02 µM.

Source of the values: paper PMC12751012, “Nanoscale Direct-to-Biology Optimization and Structural Insights into Selective S. aureus TrmD Inhibitors” (Journal of Medicinal Chemistry, 2025).
